From US20050276862A1, “Iron sequestering antimicrobial composition” (priority 2004, published 2005) come the findings set out here.

This series is described as follows: Log stability constants of ligands for metal ions (literature). The conditions noted are these: Fe(III) minus Ca.

From the text: A measure of the “affinity” of metal-ion sequestrants for various metal-ions is given by the stability constant (also often referred to as critical stability constants, complex formation constants, equilibrium constants, or formation constants) of that sequestrant for a given metal-ion. […] The ability of a specific molecule or ligand to sequester a metal-ion may depend also upon the pH, the concentrations of interfering ions, and the rate of complex formation (kinetics). Generally, however, the greater the stability constant, the greater the binding affinity for that particular metal-ion. Often the stability constants are expressed as the natural logarithm of the stability constant. Herein the stability constant for the reaction of a metal-ion (M) and a sequestrant or ligand (L) is defined as follows: M+n L⇄MLn
where the stability constant is βn=[MLn]/[M][L]^n, wherein [MLn] is the concentration of “complexed” metal-ion, [M] is the concentration of free (uncomplexed) metal-ion and [L] is the concentration of free ligand. The log of the stability constant is log βn, and n is the number of ligands which coordinate with the metal. It follows from the above equation that if βn is very large, the concentration of “free” metal-ion will be very low. […]

For the compound `O=C(O)CN(CCN(CC(=O)O)CC(=O)O)CCN(CC(=O)O)CC(=O)O` [DTPA, diethylenetriaminepentaacetic acid], the “difference between the log stability constants (specificity)” value was determined as 17.2.
